From paper PMC10816640, “Discovery of Novel Diphenyl Acrylonitrile Derivatives That Promote Adult Rats’ Hippocampal Neurogenesis” (International Journal of Molecular Sciences, 2024) come the findings set out here.

The subject of one series is hCMEC/D3 cells. Nature of the series: CCK-8 assay for cytotoxicity. The series is classed as cell-based. Particulars: hCMEC/D3 cell lines, CCK-8, 48 h incubation. Here is the method: hCMEC/D3 cells were obtained from the Cell Resource Center, Peking Union Medical College (PCRC). All cells were acquired in 2023 and were maintained in culture for no more than 10 continuous passages. The cells were cultured in DMEM (11995065, Gibco, Grand Island, NY, USA) supplemented with 10% FBS (164210-50, Procell, Austin, TX, USA), 100 units of penicillin, and […] of streptomycin (PB180120, Procell).
hCMEC/D3 cells (5 × 10^3) were seeded into 96-well plates in 90 μL of DMEM medium containing 10% fetal bovine serum per well. All test compounds were formulated as 10 mM stock solutions in DMSO (final concentration ≤ 0.5%). After overnight incubation, the test compound stock solution was diluted with DMEM medium containing 10% fetal bovine serum to every target concentration, and 10 μL of each was added to each well. Three parallel experiments were set up for each compound. After incubation for 48 h, 10 μL of CCK-8 reagent was added to each well in sequence according to the manufacturer’s instructions. After incubating in a 37 °C incubator for 1–2 h, the absorbance was measured at a wavelength of 450 nm, using a wavelength of 620 nm as a reference, and detected with a ThermoScientific Multiskan FC (Thermo Fisher Scientific). The graphs are representative results, and this experiment was independently repeated three times with similar results.

Series [1] has as its system progenitor cells in the rodents’ hippocampi. Kind of series: Proliferation stage of neurogenesis: BrdU labeling, rats sacrificed 24 h after BrdU. The class given is in vivo, rat. Particulars: i.p. 4.0 mg/kg/day for 28 days, BrdU pulse, vs vehicle; for proliferation-promoting activity (number of BrdU+ positive cells): nine-week-old rats (n = 4), Figure 8, 4 mg/kg/day. The source says: (§1) Previous in vitro or in vivo studies mainly focused on stimulating the proliferation effect of the small molecules. In this study, a two-step protocol was employed. First, the stimulating function of the compounds on progenitor cells in the rodents’ hippocampi was examined with using bromodeoxyuridine (BrdU) labeling. Next, the potent compounds were further screened to ascertain their ability to promote the differentiation of neural progenitor cells, as confirmed by dual labeling of BrdU and NeuN (neuronal nuclear antigen).
Adult rats were administered intraperitoneally with the prepared compounds at a dose of 4.0 mg/kg/day for a period of 28 days, followed by a BrdU pulse. After 24 h, the rats were sacrificed, and their brain tissues were isolated and cryosectioned. Immunohistochemical staining was performed and eight brain tissue slices were randomly selected for statistical analyzing.
Eight-week-old (or 10-week-old) SD male rats purchased from Peking University Health Science Center were acclimatized for one week at the Beijing Institute of Technology. All experimental protocols strictly adhered to the regulations governing the management of experimental animals and the animal ethics policy of the Beijing Institute of Technology.
(§2) The compounds were dissolved in reagent-grade soybean oil containing 10% ethanol to reach a drug concentration of 2.8 mg/mL. The rats in the experimental group received intraperitoneal injections of the compounds at a dose of 4.0 mg/kg/d for 28 consecutive days. As a control, the vehicle group was administered injections of reagent-grade soybean oil containing 10% ethanol. BrdU (Sigma-Aldrich, St. louis, MA, USA) solution, prepared in physiological saline at a concentration of 10 mg/mL, was administered to all rats on day 29. Each rat received two injections of BrdU at a dosage of 50 mg/kg, with a 2 h interval between injections. The rats were euthanized 24 h (or 28 days) after the final BrdU injection.
(§3) Two or four rats per group were anesthetized using pentobarbital sodium (70 mg/kg) and subsequently perfused with physiological saline. The brain tissue was carefully dissected and fixed in 4% paraformaldehyde at 4 °C for one week. Next, the brain tissue underwent dehydration using a phosphate-buffered saline (PBS) solution containing 20% to 30% sucrose. Finally, the brain tissue was cryosectioned into slices with a thickness of 30 μm, and eight slices were randomly selected for further analysis.
The assessment of new cell proliferation was conducted using BrdU staining. To eliminate endogenous peroxides, sections were exposed to 1% H2O2 for 30 min at RT. Cellular denaturation was achieved by treating the sections with 2 M HCl at 37 °C for 1 h, followed by rinsing in 0.1 M borate buffer (pH 8.5). Tissue sections were subjected to blocking in a solution consisting of 5% goat serum and 0.5% Triton X-100 in PBS at RT for 1–2 h. The specimens were then incubated overnight at 4 °C with a mouse primary antibody specific to BrdU (diluted at 1:500; Millipore, Billerica, MA, USA). Subsequently, the DAB kit was employed for 2 h of incubation at RT.
(§4) The data were presented as mean ± SEM (standard error of the mean) and visualized using GRAPHPAD PRISM 6 (Graphpad Software, La Jolla, CA, USA). Statistical analysis was conducted utilizing one-way analysis of variance (ANOVA) followed by a post hoc test. Subsequent to the statistical treatment, the observed discrepancies were determined to be statistically significant (p < 0.05).

In series [2] the test system is newborn neural progenitor cells (differentiation into mature neurons). Kind of series: Differentiation stage of neurogenesis: NeuN/BrdU double staining, rats sacrificed 28 days after BrdU. The series is classed as in vivo, rat. The following applies: for neurogenesis-promoting activity (number of NeuN+ and BrdU+ cells), differentiation stage: nine-week-old rats (n = 4), i.p. 4.0 mg/kg, Figure 9, 4 mg/kg.
Source text: as §1
The study employed a rat model, wherein nine-week-old rats were administered intraperitoneally with the compound at a dose of 4.0 mg/kg/day for 28 days and then treated with a pulse of BrdU. Instead of sacrificing the rats 24 h after the BrdU injections, the rats were sacrificed after another 28 days. The brains were then isolated and cryosectioned. Eight randomly selected slices were subjected to immunohistochemical staining. This staining enabled the co-localization of the BrdU-incorporated cells with the NeuN marker, enabling the definition of the compounds that could promote the differentiation of newborn neural progenitor cells into mature functional neurons.
as §2, §3
The differentiation process of NPCs was visualized through the utilization of the NeuN/BrdU double staining technique. Tissue sections were subjected to an incubation period in a blocking buffer at RT for 1 to 2 h. The specimens were exposed to a rabbit anti-NeuN antibody (diluted at 1:500, Abcam, Cambridge, MA, UK) and a primary antibody, BrdU (diluted at 1:500), overnight at 4 °C. Afterwards, the sections were treated with anti-mouse 488 and anti-rabbit TRITC secondary antibodies for 2 h at RT.
as §4

“Also recorded” adds a separate entry of the source.

The compound `CC(C)C(=O)Nc1ccc(/C(C#N)=C/c2ccc3c(c2)OCO3)cc1` [29b, (Z)-N-(4-(2-(benzo[d][1, 3]dioxol-5-yl)-1-cyanovinyl)phenyl)isobutyramide] came in with an IC50 in the series on hCMEC/D3 cells above 200 µM. Besides, the “proliferation-promoting activity (number of BrdU+ newborn cells)” value in series [1] (eleven-week-old rats (n = 2), Figures 3-6, 4 mg/kg/day) is recorded as “significant proliferation-promoting activity; also recorded: satisfactory activity”. Besides, the “proliferation-promoting activity (number of BrdU+ positive cells)” value in series [1] was “significant proliferation-promoting activity; also recorded: exhibited proliferative activity”. Besides, the “neurogenesis-promoting activity (number of NeuN+ and BrdU+ cells, newborn neurons)” value in series [2] (nine-week-old rats (n = 2), i.p. 4.0 mg/kg/day for 28 days, BrdU pulse, Figure 7B, 4 mg/kg/day) was “significant neurogenesis-promoting activity; also recorded: significantly increased the number of newborn neurons”. The “neurogenesis-promoting activity (number of NeuN+ and BrdU+ cells), differentiation stage” value in series [2] is “significant neurogenesis-promoting activity; also recorded: better activity than the clinical drug NSI-189”.

For the compound `CC(C)C(=O)Nc1ccc(/C=C(\C#N)c2ccc3c(c2)OCO3)cc1` [32b, (Z)-N-(4-(2-(benzo[d][1, 3]dioxol-5-yl)-2-cyanovinyl)phenyl)isobutyramide], the IC50 with hCMEC/D3 cells is above 200 µM. Besides, the “proliferation-promoting activity (number of BrdU+ positive cells)” value in series [1] is “significant proliferation-promoting activity; also recorded: exhibited proliferative activity”. For the same compound, in series [2], the “neurogenesis-promoting activity (number of NeuN+ and BrdU+ cells), differentiation stage” value is “significant neurogenesis-promoting activity; also recorded: better activity than the clinical drug NSI-189; also recorded: highest activity”.
